The subject of data set [1] is Homo sapiens. The conditions noted are these: clinical; oral; diet; M; rbc che depression.
The subject of data set [2] is Homo sapiens. The note with it: clinical; duration: 56 days; oral; capsule; M; neurological.
Data set [3] deals with Oryctolagus sp. The conditions noted are these: acute; duration: 1 days; inhalation; M; New Zealand; neurological.
Data set [4] deals with Rattus norvegicus. The conditions noted are these: M/F.
Data set [5] has as its system Homo sapiens. The conditions noted are these: clinical; duration: 47 days; oral; capsule; Blood: Hematological effects.
Data set [6] concerns Rattus norvegicus. The conditions noted are these: oral; for LD50: acute.
Data set [7] deals with Rattus norvegicus. The data set is described as follows: LD0; higher = less toxic. The conditions noted are these: acute.
The test system of data set [8] is Oryctolagus sp. The note with it: duration: 7 days, oral, gavage, New Zealand.
Data set [9] deals with Oryctolagus sp. The data set is described as follows: LD0; higher = less toxic. The conditions noted are these: acute; dermal; occlusive; New Zealand.
In a further data set the test system is Sus scrofa. The conditions noted are these: oral, Not specified; for LOEL: duration: 14 weeks, M/F, Changes in serum testosterone and estradiol and testes weight.
The test system of the next data set is Gallus gallus. The note with it: repeat dose other; oral.
The test system of the next data set is Canidae. The note with it: chronic; duration: 52 weeks; oral; capsule; M/F; Beagle; hepatic.
The test system of data set [10] is Mus musculus. The conditions noted are these: chronic; duration: 2 years; oral; diet; M/F; B6C3F1; Urinary.
The test system of data set [11] is Oryctolagus sp. The note with it: developmental; oral; F; reduced stool quantity, food consumption and body weight gain hyperirritability (maternal effects).
For data set [12], the system named is Oryctolagus sp. The note with it: short-term; duration: 13 days; oral; gavage; Gastrointestinal system: Decreased stool quantity + Nervous system: Hyperirritability + Whole body: Decreased food consumption + Whole body….
The test system of the next data set is Anas platyrhynchos. The note with it: oral.
Data set [13] concerns Rattus norvegicus. The note with it: subchronic, oral, liver and kidney toxicity.
In data set [14] the test system is Rattus norvegicus. The conditions noted are these: subchronic; duration: 12 weeks; oral; diet; Kidney: Toxicity + Liver: Toxicity.
For data set [15], the system named is Mus musculus. The note with it: acute; oral; gavage.
For data set [16], the system named is Homo sapiens. The conditions noted are these: clinical; oral; M/F; Decreased respiratory function.
Where [17] appears, read: short-term, duration: 28 days, diet, Fischer 344.

SMILES strings stand for the structures. Several values for one entry are separate records, joined by “and”; a condition that tells them apart may be missing. Equal values may be shown once. A value given as a limit tells only on which side of the number the result lay.

One may read the NOAEL as the highest dose or exposure tested at which no adverse effect was seen. The LOAEL is the lowest tested level that showed an adverse finding. As usually defined, the LD50 is the dose at which mortality reaches 50%.

Take `CCOC(=O)CC(SP(=S)(OC)OC)C(=O)OCC` (stereo unspecified) [Malathion]: the LEL with Homo sapiens [1] amounted to 0.34 mg/kg-day. In addition, the NOEL in the data set with Homo sapiens [1] and in the data set with Homo sapiens [5] was 0.23 mg/kg-day each time. In addition, the NOAEL in the data set with Homo sapiens [2] was 0.23 mg/kg-day; in the data set with Oryctolagus sp. [3], 65 mg/m3; in the data set with Rattus norvegicus [4] (chronic, duration: 2 years, oral, diet, Fischer-344, neurological), 2 mg/kg-day. This compound also registered an LOAEL with Rattus norvegicus [4] (subchronic, duration: 13 weeks, inhalation, whole body, Sprague-Dawley, respiratory) of 100 mg/m3.
As for `C[S-].[Na+]` [Sodium thiomethoxide], the LD50 in the data set on Rattus norvegicus [6] (Sprague-Dawley) is ≥ 75 mg/kg and ≤ 161 mg/kg; in the data set with Rattus norvegicus [6] (gavage, Sprague-Dawley), 109 mg/kg and ≥ 84 mg/kg and ≤ 146 mg/kg. In the data set with Rattus norvegicus [7] (dermal, semiocclusive, Sprague-Dawley), this compound displayed an LD0 of no less than 400 mg/kg.
As to `Nc1ccc([N+](=O)[O-])cc1` [4-Nitrobenzenamine], the NOAEL in the data set with Oryctolagus sp. [8] (developmental) is 125 mg/kg-day; with Oryctolagus sp. [8] (reproduction developmental, generation: F1), 125 mg/kg-day; in the data set on Rattus norvegicus [6] (reproduction developmental, duration: 90 days, gavage, Sprague-Dawley) it was less than 3 mg/kg-day; in the data set with Rattus norvegicus [6] (reproduction developmental, duration: 167 days, gavage, Sprague-Dawley, generation: F0), 1.5 mg/kg-day; in the data set on Rattus norvegicus [6] (reproduction developmental, duration: 167 days, gavage, Sprague-Dawley, generation: F1), 9000 mg/kg-day. In addition, the LD50 with Rattus norvegicus [6] (gavage, Sprague-Dawley) was 1400 mg/kg. For the same compound, the LD0 in the data set with Oryctolagus sp. [9] was greater than 7940 mg/kg.
On to `CC(=O)O[C@H]1CC[C@H]2[C@@H]3CCC4=CC(=O)CCC4=C3C=C[C@]12C` [Trenbolone acetate], for which the LOEL in the data set with Sus scrofa (chronic, diet) was determined as 0.002 mg/kg-day; with Sus scrofa (feed) it was 2 µg/kg-day.
In the data set on Gallus gallus, `O.O.[Na+].[Na+].[O]=[Mo](=[O])([O-])[O-]` [Sodium molybdate (Na2MoO4) dihydrate] gave an LOAEL of 35.3 mg/kg-day and an NOAEL of 3.5 mg/kg-day.
In the data set with Canidae, `COC(=O)c1cc(Oc2ccc(Cl)cc2Cl)ccc1[N+](=O)[O-]` [Bifenox] came in with an NOAEL of 145 mg/kg-day. The lowest observed adverse effect level (LOAEL) with Mus musculus [10] amounted to 7 mg/kg-day.
In the data set on Oryctolagus sp. [11], `CCOC(=O)C(O)(c1ccc(Cl)cc1)c1ccc(Cl)cc1` [Chlorobenzilate] returned an LEL of 20 mg/kg-day and an NOEL of 5 mg/kg-day. Further, in the data set with Oryctolagus sp. [12], the NOEL was 5 mg/kg-day.
Take `ClC1C(Cl)C(Cl)C(Cl)C(Cl)C1Cl` (stereo unspecified) [Lindane]: the lowest observed adverse effect level (LOAEL) in the data set on Anas platyrhynchos came to 20 mg/kg-day; in the data set on Rattus norvegicus [13] (M) it was 1.55 mg/kg-day; with Rattus norvegicus [4] (developmental, duration: 1 days, oral, gavage, Bor:spf, developmental) it was 1 mg/kg-day. The no observed adverse effect level (NOAEL) in the data set on Anas platyrhynchos amounted to 2 mg/kg-day; in the data set on Rattus norvegicus [13] (F), 0.33 mg/kg-day; with Rattus norvegicus [4] (developmental, duration: 13 weeks, oral, drinking water, Sprague-Dawley, developmental), 7.6e-05 mg/kg-day; in the data set on Rattus norvegicus [14], 0.33 mg/kg-day.
`CC1=C[C@H]2O[C@@H]3[C@H](O)C[C@](C)([C@@]2(CO)[C@H](O)C1=O)[C@@]31CO1` [Vomitoxin] had an NOEL in the data set on Sus scrofa (repeat dose other, diet, Emesis) of 0.25 mg/kg-day.
For `CCCCC(CC)COC(=O)c1ccc(C(=O)OCC(CC)CCCC)c(C(=O)OCC(CC)CCCC)c1` (stereo unspecified) [Tris(2-ethylhexyl) trimellitate], the LD50 was greater than 3200 mg/kg in the data set on Mus musculus [15]; greater than 3200 mg/kg in the data set on Rattus norvegicus [6] (gavage); greater than 2000 mg/kg with Rattus norvegicus [6] (gavage, Crj:CD). For the same compound, the no-observed-adverse-effect level (NOAEL) with Rattus norvegicus [6] (reproduction developmental, duration: 20 days, gavage, Crj:CD, generation: F1) was 1000 mg/kg-day; with Rattus norvegicus [6] (reproduction developmental, duration: 20 days, gavage, F, Crj:CD), 1000 mg/kg-day; with Rattus norvegicus [6] (reproduction developmental, duration: 20 days, gavage, M, Crj:CD), 100 mg/kg-day; with Rattus norvegicus [6] (setting [17]), 184 mg/kg-day; in the data set on Rattus norvegicus [6] (short-term, duration: 28 days, gavage, F, Crj:CD) it was greater than 1000 mg/kg-day; in the data set with Rattus norvegicus [6] (short-term, duration: 28 days, gavage, M, Crj:CD), greater than 1000 mg/kg-day. This compound gave an LOAEL in the data set on Rattus norvegicus [6] (setting [17]) of 650 mg/kg-day. In the data set with Rattus norvegicus [7] (inhalation, Crj:CD), this compound returned an LD0 of 2600 mg/m3.
For the compound `CC(C)NCC(O)COc1cccc2[nH]c3ccccc3c12` (stereo unspecified) [Carazolol], the NOEL in the data set on Homo sapiens [16] was found to be 0.0005 mg/kg-day.

The values are drawn from EPA's ToxValDB 9.5.
